Assay results from patent US8268996B2, “Compounds and compositions as cathepsin S inhibitors” (IRM LLC, priority 2004, dated 2012).
pIC50, pKi: −log10 of the molar value.

Columns and labels:
Format in all cases: biochemical
Cathepsin K = molecular target: T1, Cathepsin K (Homo sapiens, UniProt P43235); assay: Cathepsin K Assay; settings: for pKi: pH5.5, 20 minutes incubation at room temperature, substrate 40 μM, fluorescence
T1 sequence (P43235 115-329): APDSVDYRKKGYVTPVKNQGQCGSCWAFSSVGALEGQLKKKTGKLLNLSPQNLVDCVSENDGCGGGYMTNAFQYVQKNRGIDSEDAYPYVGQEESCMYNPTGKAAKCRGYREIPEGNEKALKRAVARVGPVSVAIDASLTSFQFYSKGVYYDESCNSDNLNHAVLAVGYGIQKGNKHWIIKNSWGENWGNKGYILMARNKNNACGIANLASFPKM
Experimental: (§1) Kinetic measurements are performed in a total reaction volume of 30 μl in 384-well microtiter plates. […] Control reactions in the absence of inhibitor are performed in replicates of 24. The reactions are initiated by adding the substrate, acetyl-lysine-histidine-proline-lysine-amino carbamoyl coumarin, to a final concentration of 40 μM. The rate of substrate hydrolysis is measured by monitoring the increase in fluorescence at an excitation wavelength of 380 nm and an emission wavelength of 450 nm that results from cleavage of the aniline bond in the substrate by the enzyme. The apparent inhibition constants for the compounds are determined from the enzyme progress curves and are then used to calculate the inhibition constants for competitive inhibitors.

Cathepsin L = Cathepsin L (Homo sapiens, UniProt P07711); assay: Cathepsin L Assay; settings: for pKi: pH5.5, 20 minutes incubation at room temperature, substrate 20 μM, fluorescence
Chain of Cathepsin L (P07711 114-333, species assumed): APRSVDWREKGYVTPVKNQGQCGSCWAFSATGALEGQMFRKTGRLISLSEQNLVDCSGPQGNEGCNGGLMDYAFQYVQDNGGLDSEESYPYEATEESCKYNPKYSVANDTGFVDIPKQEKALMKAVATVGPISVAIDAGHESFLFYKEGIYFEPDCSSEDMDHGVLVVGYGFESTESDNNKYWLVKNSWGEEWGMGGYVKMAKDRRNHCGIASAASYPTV
Experimental: as §1, with “acetyl-histidine-lysine-phenylalanine-lysine-amino” for “acetyl-lysine-histidine-proline-lysine-amino”, “20” for “40”

Cathepsin B = Cathepsin B (Homo sapiens, UniProt P07858); assay: Cathepsin B Assay; settings: for pKi: pH5.5, 20 minutes incubation at room temperature, substrate 10 μM, fluorescence
Experimental: as §1, with “acetyl-histidine-proline-valine-lysine-amino” for “acetyl-lysine-histidine-proline-lysine-amino”, “10” for “40”

Cathepsin S = Cathepsin S (Homo sapiens, UniProt P25774); assay: Cathepsin S Assay
Chain of Cathepsin S (P25774 115-331): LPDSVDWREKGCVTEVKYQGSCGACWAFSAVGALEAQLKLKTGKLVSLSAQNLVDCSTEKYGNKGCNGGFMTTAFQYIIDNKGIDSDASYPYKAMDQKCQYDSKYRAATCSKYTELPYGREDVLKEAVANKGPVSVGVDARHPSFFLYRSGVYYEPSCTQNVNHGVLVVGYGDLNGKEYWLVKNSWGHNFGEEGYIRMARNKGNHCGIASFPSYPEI
Experimental: as §1, with “acetyl-histidine-proline-valine-lysine-amino” for “acetyl-lysine-histidine-proline-lysine-amino”, “50” for “40”

[1] = ratio of isozyme inhibition constant to cathepsin S inhibition constant

pKi (Cathepsin K)	pKi (Cathepsin L)	pKi (Cathepsin B)	pKi (Cathepsin S)	SMILES	selectivity for cathepsin S over cathepsin K (Cathepsin K; [1])	selectivity for cathepsin S over cathepsin L (Cathepsin L; [1])	selectivity for cathepsin S over cathepsin B (Cathepsin B; [1])	pIC50 (Cathepsin S)
6.68	5.69	5.24	9.10	CCC[C@H](NC(=O)O[C@@H](CC1CCCCC1)C(=O)N1CCCC1)C(=O)c1nc2ccccc2o1 [Example 27, (1S)-cyclohexylmethyl-2-oxo-2-(pyrrolidin-1-yl)-ethyl(1S)-(benzoxazole-2-carbonyl)-butyl carbamate]	–	–	–	–
5.67	4.82	< 4.52	8.68	O=C(N[C@H](C(=O)c1nc2ccc(F)cc2o1)C1CC1)O[C@@H](CC1CCCCC1)C(=O)N1CCOCC1 [Example 40, 2-cyclohexyl-(1S)-(morpholine-4-carbonyl)ethyl(1S)-cyclopropyl-2-(6-fluoro-benzoxazol-2-yl)-2-oxo-ethyl carbamate]	–	–	–	–
< 4.52	< 4.00	< 4.00	6.05	O=C(N[C@H]1COCC1=O)O[C@@H](CC1CCCCC1)C(=O)N1CCOCC1 [Example 5, 2-cyclohexyl-(1S)-(morpholine-4-carbonyl)ethyl 4-oxo-tetrahydro-furan-(3S)-yl carbamate]	–	–	–	–
6.32	5.56	5.73	8.55	CC[C@H](NC(=O)O[C@@H](CC1CCCCC1)C(=O)N1CCOCC1)C(=O)c1nc2cc(Cl)ccc2o1 [Example 48, 2-cyclohexyl-(1S)-(morpholine-4-carbonyl)ethyl(1S)-(5-chloro-benzoxazole-2-carbonyl)-propyl carbamate]	–	–	–	–
6.32	5.44	5.01	9.30	CCC[C@H](NC(=O)O[C@@H](CC1CCCCC1)C(=O)N1CCOCC1)C(=O)c1nc2ccc(F)cc2o1 [Example 44, 2-cyclohexyl-(1S)-(morpholine-4-carbonyl)ethyl(1S)-(6-fluoro-benzoxazole-2-carbonyl)-butyl carbamate]	–	–	–	–
4.86	< 4.65	< 4.52	7.50	N#C[C@H](COCc1ccccc1Cl)NC(=O)O[C@@H](CC1CCCCC1)C(=O)N1CCOCC1 [Example 8, (1S)-cyclohexylmethyl-2-morpholin-4-yl-2-oxo-ethyl 2-(2-chloro-benzyloxy)-(1R)-cyano-ethyl carbamate]	–	–	–	–
6.69	5.66	< 4.52	8.96	CC[C@H](NC(=O)O[C@@H](CC1CCCCC1)C(=O)N1CCOCC1)C(=O)c1nc2ccc(C)cc2o1 [Example 47, 2-cyclohexyl-(1S)-(morpholine-4-carbonyl)ethyl(1S)-(6-methyl-benzoxazole-2-carbonyl)-propyl carbamate]	–	–	–	–
6.60	5.33	4.80	8.44	CC[C@H](NC(=O)O[C@@H](CC1CCCCC1)C(=O)N(C)C)C(=O)c1nc2ccccc2o1 [Example 43, 2-cyclohexyl-(1S)-dimethylcarbamoyl-ethyl(1S)-(benzoxazole-2-carbonyl)-propyl carbamate]	–	–	–	–
6.32	5.64	5.36	8.74	CCC[C@H](NC(=O)O[C@@H](CC1CCCCC1)C(=O)N1CCOCC1)C(=O)c1nc2cc(F)ccc2o1 [Example 54, 2-cyclohexyl-(1S)-(morpholine-4-carbonyl)ethyl(1S)-(5-fluoro-benzoxazole-2-carbonyl)-butyl carbamate]	–	–	–	–
6.95	5.66	5.39	8.80	CCC[C@H](NC(=O)O[C@H](C(=O)N1CCOCC1)C1CCCCC1)C(=O)c1nc2ccccc2o1 [Example 46, (1S)-cyclohexyl-1-(morpholine-4-carbonyl)methyl(1S)-(benzoxazole-2-carbonyl)-butyl carbamate]	–	–	–	–
< 4.00	< 4.00	< 4.00	6.31	C[C@H](NC(=O)O[C@@H](CS(=O)(=O)Cc1ccccc1)C(=O)N1CCOCC1)C(=O)c1nc2ccccc2o1 [Example 2, 2-phenylmethanesulfonyl-(1R)-(morpholine-4-carbonyl)ethyl 2-(benzoxazol-2-yl)-(1S)-methyl-2-oxo-ethyl carbamate]	–	–	–	–
6.59	5.88	5.28	9.40	CC[C@H](NC(=O)O[C@@H](CC1CCCCC1)C(=O)N1CCOCC1)C(=O)c1nc2cccnc2o1 [Example 39, 2-cyclohexyl-(1S)-(morpholine-4-carbonyl)ethyl(1S)-(oxazolo[5,4-b]pyridine-2-carbonyl)-propyl carbamate]	–	–	–	–
6.56	5.02	4.78	8.34	CC[C@H](NC(=O)O[C@H](C(=O)N1CCOCC1)C1CCCCC1)C(=O)c1nc2ccc(F)cc2o1 [Example 42, (1S)-cyclohexyl-1-(morpholine-4-carbonyl)methyl(1S)-(6-fluoro-benzoxazole-2-carbonyl)-propyl carbamate]	–	–	–	–
6.73	5.40	5.04	9.05	CC[C@H](NC(=O)O[C@@H](CC1CCCCC1)C(=O)N1CCCC1)C(=O)c1nc2ccc(F)cc2o1 [Example 55, (1S)-cyclohexylmethyl-2-oxo-2-(pyrrolidin-1-yl)-ethyl(1S)-(6-fluoro-benzoxazole-2-carbonyl)-propyl carbamate]	–	–	–	–

SMILES	pKi (Cathepsin K)	pKi (Cathepsin L)	pKi (Cathepsin B)	pKi (Cathepsin S)	selectivity for cathepsin S over cathepsin K (Cathepsin K; [1])	selectivity for cathepsin S over cathepsin L (Cathepsin L; [1])	selectivity for cathepsin S over cathepsin B (Cathepsin B; [1])	pIC50 (Cathepsin S)
O=C(N[C@H](C(=O)c1nc2ccccc2o1)C1CC1)O[C@@H](CC1CCCCC1)C(=O)N1CCOCC1 [Example 1, 2-cyclohexyl-(1S)-(morpholine-4-carbonyl)ethyl 2-(benzooxazol-2-yl)-(1S)-cyclopropyl-2-oxo-ethyl carbamate]	5.29	< 4.63	< 4.32	8.18	at least 100 fold	at least 100 fold	at least 100 fold	8.18
